In patent US20110183969A1, “ANTIFUNGAL COMBINATION THERAPY” (priority 2008, published 2011):
Converted amounts (≈) assume the structure as drawn.

Key:
Experiment in all cases: MIC (YAG medium)
Assay type in all cases: cell-based
Aspergillus niger = conditions: YAG medium, MIC banded into grades; for MIC: Aspergillus niger, read-out: MIC A. niger (grade)
Experimental: (§1) Between 1 and 5 mgs of compound were accurately weighed out into a sterile Eppendorf tube. The compound was dissolved in DMSO to give a solution containing 5 mg/mL. Tubes were stored at −20° C. until required.
(§2) On the day of testing thawed solutions were vortex mixed to ensure homogeneity. 30 μL of solution was removed and added to 570 μL of sterile water in a separate sterile Eppendorf The thoroughly mixed solution was used to prepare a series of doubling dilutions in water, in a deep well plate. […] replicate plates were prepared using a Minitrak by aspirating 20 μL from each well into eleven clear polystyrene 96 well plates.
(§3) Spores of Aspergillus spp. (Aspergillus fumigatus [two strains], Aspergillus terreus [two strains], Aspergillus niger and Aspergillus flavus) were harvested from cultures grown on Sabarauds agar for 5 days, and resuspended in PBS/Tween 80 to approx 1×10^7 cfu/mL. Other filamentous fungi (Absidia corymbifera, Fusarium solani, Rhizomucor, Scedosporium spp., Trichophyton spp.), were grown on Sabarauds agar for 2-10 days and spores/hyphae resuspended in PBS/Tween to give approx 1×10^7 cfu/mL. Candida species (Candida albicans, Candida glabrata, Candida krusei, Candida parapsilosis and Candida tropicalis) were grown on Sabarauds agar, cells were harvested from the agar using a sterile loop and resuspended in PBS/Tween 80 to approx 1×10^6 cfu/mL. Each organism suspension was diluted in RPMI medium, containing 2% glucose and 0.135 M MOPS buffer (pH 7.0) to 0.5−2×10^4 cfu/mL for Aspergillus spp. and other filamentous fungi and 0.5-2×10^3 cfu/mL for yeast. 80 μL of an organism suspension was added to each well of the plate containing drug dilutions.
(§4) This produced MIC plates with a drug range 50-0.05 mg/L and organism inocula of 1-2×10^4 cfu/mL for Aspergillus spp. and other filamentous fungi and 1-2×10^3 cfu/mL for yeasts. All plates were incubated for 24-48 hrs at 35° C. Growth was assessed by monitoring the optical density at 485 nm for each well. The MIC of a compound is the lowest drug concentration that inhibits growth of an organism by >80% compared with a drug free control. MICs are recorded as mg/L. Other growth media can be used for susceptibility testing, and the activity of the described compounds can also be assessed in a medium comprising 1% glucose, 1% ammonium chloride and 0.5% yeast extract (YAG medium). To perform MIC tests in this medium, dilutions of compounds are prepared in microtitre plates as described above. Fungal strains to be tested are grown and harvested in an identical manner to that described above, each organism suspension is then diluted in YAG medium to 0.5-2×10^4 cfu/mL for Aspergillus spp. and other filamentous fungi and 0.5-2×10^3 cfu/mL for yeast. 80 μL of an organism suspension was added to each well of the plate containing drug dilutions. This produced MIC plates with a drug range 50-0.05 mg/L and organism inocula of 1-2×10^4 cfu/mL for Aspergillus spp. and other filamentous fungi and 1-2×10^3 cfu/mL for yeasts. All plates were incubated for 24 hrs at 35° C. Growth was assessed by monitoring the optical density at 485 nm for each well. The MIC of a compound is the lowest drug concentration that inhibits growth of an organism by >70% compared with a drug free control. MICs are recorded as mg/L. In cases where the MIC of an organism is […] mg/L the MIC is repeated using a concentration range of 0.5-0.0005 mg/L. MIC tests in YAG medium have more clear-cut endpoints and have slightly lower MICs than those performed in RPMI medium.
(§5) The following organisms were tested: Absidia corymbifera, Aspergillus flavus, Aspergillus fumigatus AF293 and AF210, Aspergillus niger, Aspergillus terreus AT4 and AT49, Candida albicans, Candida glabrata, Candida krusei, Candida parapsilosis, Candida tropicalis, Fusarium solani, Rhizomucor sp., Scedosporium apiospermum, Scedosporium prolificans, Trichophyton mentagrophytes, and Trichophyton rubrum.

[1] = test system: Aspergillus fumigatus AF210; conditions: YAG medium, MIC banded into grades, AF210; for MIC: Aspergillus fumigatus, read-out: MIC A. fumigatus 210 (grade)
Experimental: as §1, §2, §3, §4, §5

[2] = test system: Aspergillus fumigatus AF293; conditions: YAG medium, MIC banded into grades, AF293; for MIC: Aspergillus fumigatus, read-out: MIC A. fumigatus (grade)
Experimental: as §1, §2, §3, §4, §5

Aspergillus terreus AT4 = conditions: YAG medium, MIC banded into grades, AT4; for MIC: Aspergillus terreus, read-out: MIC A. terreus (grade)
Experimental: as §1, §2, §3, §4, §5

Aspergillus flavus = conditions: YAG medium, MIC banded into grades; for MIC: Aspergillus flavus, read-out: MIC A. flavus (grade)
Experimental: as §1, §2, §3, §4, §5

Aspergillus terreus AT49 = conditions: YAG medium, MIC banded into grades, AT49; for MIC: Aspergillus terreus, read-out: MIC A. terreus 49 (grade)
Experimental: as §1, §2, §3, §4, §5

| Molecule | MIC (Aspergillus niger) [µg/mL] | MIC [1] [µg/mL] | MIC [2] [µg/mL] | MIC (Aspergillus terreus AT4) [µg/mL] | MIC (Aspergillus flavus) [µg/mL] | MIC (Aspergillus terreus AT49) [µg/mL] | MIC A. niger (grade) (Aspergillus niger) | MIC A. fumigatus 210 (grade) [1] | MIC A. fumigatus (grade) [2] | MIC A. terreus (grade) (Aspergillus terreus AT4) | MIC A. flavus (grade) (Aspergillus flavus) | MIC A. terreus 49 (grade) (Aspergillus terreus AT49) |
| --- | --- | --- | --- | --- | --- | --- | --- | --- | --- | --- | --- | --- |
| Cc1cc(C)nc(N2CCCN(c3ccc(NC(=O)C(=O)c4c(-c5ccccc5)cc5ccccn45)cc3)CC2)c1 [Example 54, N-{4-[4-(4,6-Dimethyl-pyridin-2-yl)-[1,4]diazepan-1-yl]-phenyl}-2-oxo-2-(2-phenyl-indolizin-3-yl)-acetamide] | < 1 | < 1 | < 1 | < 1 | < 1 | < 1 | – | – | – | – | – | – |
| O=C(Nc1ccc(N2CCN(c3cc(OCCO)ccn3)CC2)cc1)C(=O)c1c(-c2ccccc2)cc2ccccn12 [Example 89, N-(4-{4-[4-(2-Hydroxy-ethoxy)-pyridin-2-yl]-piperazin-1-yl}-phenyl)-2-oxo-2-(2-phenyl-indolizin-3-yl)-acetamide] | 1 to 10 (≈ 1.78 to 17.8 µM) | 1 to 10 (≈ 1.78 to 17.8 µM) | 1 to 10 (≈ 1.78 to 17.8 µM) | 1 to 10 (≈ 1.78 to 17.8 µM) | < 1 | < 1 | – | – | – | – | – | – |
| O=C(Nc1ccc(NCCOc2ccccn2)cc1)C(=O)c1c(-c2ccccc2)cc2ccccn12 [Example 90, 2-Oxo-2-(2-phenyl-indolizin-3-yl)-N-{4-[2-(pyridin-2-yloxy)-ethylamino]-phenyl}-acetamide] | < 1 | < 1 | < 1 | < 1 | < 1 | < 1 | – | – | – | – | – | – |
| O=C(Nc1ccc(N2CCN(c3ccccn3)CC2)cc1)C(=O)c1c(-c2ccccc2)cc2ccc(F)cn12 [Example 42, 2-(6-Fluoro-2-phenyl-indolizin-3-yl)-2-oxo-N-[4-(4-pyridin-2-yl-piperazin-1-yl)phenyl] acetamide] | – | – | – | – | – | – | 3 (A grade of 3 represents an MIC of less than 1 mg/L) | 3 (A grade of 3 represents an MIC of less than 1 mg/L) | 3 (A grade of 3 represents an MIC of less than 1 mg/L) | 3 (A grade of 3 represents an MIC of less than 1 mg/L) | 3 (A grade of 3 represents an MIC of less than 1 mg/L) | 3 (A grade of 3 represents an MIC of less than 1 mg/L) |
| O=C(Nc1cnccc1N1CCN(Cc2cccs2)CC1)C(=O)c1c(-c2ccccc2)cc2ccccn12 [Example 37, 2-Oxo-2-(2-phenyl-indolizin-3-yl)-N-[4-{4-thiophen-2-ylmethyl-piperazin-1-yl}-pyridine-3-yl]-acetamide] | < 1 | < 1 | < 1 | < 1 | < 1 | < 1 | – | – | – | – | – | – |
| O=C(Nc1ccc(-c2cocn2)cc1)C(=O)c1c(-c2ccc(-c3ccccc3)cc2)cc2ccccn12 [Example 85, 2-(2-Biphenyl-4-yl-indolizin-3-yl)-N-(4-oxazol-4-yl-phenyl)-2-oxo-acetamide] | > 10 | > 10 | > 10 | < 1 | < 1 | < 1 | – | – | – | – | – | – |
| CC(C)c1ncc(C(C)(C)c2cccc(NC(=O)C(=O)c3c(-c4ccccc4)cc4ccccn34)c2)n1C [Example 15, N-{3-[1-(2-Isopropyl-3-methyl-3H-imidazol-4-yl)-1-methyl-ethyl]-phenyl}-2-oxo-2-(2-phenyl-indolizin-3-yl)-acetamide] | > 10 | > 10 | > 10 | > 10 | > 10 | > 10 | – | – | – | – | – | – |
| Cc1nc(C(C)C)cn1C(C)(C)c1cccc(NC(=O)C(=O)c2c(-c3ccccc3)cc3ccccn23)c1 [Example 25] | – | – | – | – | – | – | 1 (a grade of 1 represents an MIC of greater than 10 mg/L) | 1 (a grade of 1 represents an MIC of greater than 10 mg/L) | 1 (a grade of 1 represents an MIC of greater than 10 mg/L) | 2 (A grade of 2 represents an MIC of from 1 to 10) | 2 (A grade of 2 represents an MIC of from 1 to 10) | 2 (A grade of 2 represents an MIC of from 1 to 10) |
| Cc1cc(C)nc(N2CCN(c3ccc(NC(=O)C(=O)c4c(-c5ccccc5)cc5ccc(F)cn45)cc3)CC2)c1 [Example 32, N-{4-[4-(4,6-Dimethyl-pyridin-2-yl)-piperazin-1-yl]-phenyl}-2-(6-fluoro-2-phenyl-indolizin-3-yl)-2-oxo-acetamide] | < 1 | < 1 | < 1 | < 1 | < 1 | < 1 | – | – | – | – | – | – |
| COCCOCCOc1cc(C)nc(N2CCN(c3ccc(NC(=O)C(=O)c4c(-c5ccccc5)cc5ccccn45)cc3)CC2)c1 [Example 76, N-[4-(4-{4-[2-(2-methoxy-ethoxy)-ethoxy]-6-methyl-pyridin-2-yl}-piperazin-1-yl)-phenyl]-2-oxo-2-(2-phenyl-indolizin-3-yl)-acetamide] | < 1 | < 1 | < 1 | < 1 | < 1 | < 1 | – | – | – | – | – | – |
| COCCN(C)c1ccc(N2CCN(c3ccc(NC(=O)C(=O)c4c(-c5ccccc5)cc5ccccn45)cc3)CC2)cn1 [Example 68, N-[4-(4-{6-[(2-Methoxy-ethyl)-methyl-amino]-pyridin-3-yl}-piperazin-1-yl)-phenyl]-2-oxo-2-(2-phenyl-indolizin-3-yl)-acetamide] | < 1 | < 1 | < 1 | < 1 | < 1 | < 1 | – | – | – | – | – | – |
| N-[4-(3-Ethyl-1H-imidazol-2yl methyl)-phenyl]-2-oxo-2-(2-o-tolyl-indolizin-3yl)-acetamide [Example 30] | – | – | – | – | – | – | 1 (a grade of 1 represents an MIC of greater than 10 mg/L) | 1 (a grade of 1 represents an MIC of greater than 10 mg/L) | 1 (a grade of 1 represents an MIC of greater than 10 mg/L) | 1 (a grade of 1 represents an MIC of greater than 10 mg/L) | 1 (a grade of 1 represents an MIC of greater than 10 mg/L) | 1 (a grade of 1 represents an MIC of greater than 10 mg/L) |
| O=C(Nc1ccc(N2CCN(c3cccc(CCO)n3)CC2)cc1)C(=O)c1c(-c2ccccc2)cc2ccccn12 [Example 88, N-(4-{4-[6-(2-hydroxy-ethyl)-pyridin-2-yl]-piperazin-1-yl}-phenyl)-2-oxo-2-(2-phenyl-indolizin-3-yl)-acetamide] | < 1 | < 1 | < 1 | < 1 | < 1 | < 1 | – | – | – | – | – | – |
| Cc1cc(C)nc(N2CCN(c3ccc(NC(=O)C(=O)c4c(C(C)(C)C)cc5ccccn45)cc3)CC2)c1 [Example 62, 2-(2-tert-Butyl-indolizin-3-yl)-N-{4-[4-(4,6-dimethyl-pyridin-2-yl)-piperazin-1-yl]-phenyl}-2-oxo-acetamide] | > 10 | > 10 | > 10 | 1 to 10 (≈ 1.96 to 19.6 µM) | > 10 | > 10 | – | – | – | – | – | – |
